Each block holds one molecule with its values, some of them ahead of it.
How the values were obtained:
[1] = 1H NMR titration of guests into the ^2,6AnBox^4+ cavity (binding constant); settings: 1H NMR titration in CD3CN; for binding constant Ka: high concentration of salt (saturated with KPF6, 140 mM); for association constant Ka: without salt
Description: The cavity of ^2,6AnBox^4+ is able to bind an anthracene molecule in a face-to-face manner as a result of [π . . . π] interactions. The formation of anthracene⊂^2,6AnBox^4+ (An⊂^2,6AnBox^4+) was confirmed by ^1H NMR titration in CD3CN. […] Further evidence for the formation of the 1:1 complex (anthracene⊂^2,6AnBox^4+) came from XRD analysis. […] It is remarkable that, upon addition of the anthracene guest to the cavity of ^2,6AnBox^4+, a tubular superstructure is formed along the c-axis, whereas along the b-axis, face-to-face [π . . . π] stacks form between the anthracene units. Apparently, the long-range [π . . . π] distances of 3.5 Å between the anthracene units are superstructure-directing in anthracene⊂^2,6AnBox^4+ instead of the anthracene-pyridinium DA interactions. The formation of the anthracene⊂^2,6AnBox^4+ complex implies that [π . . . π] interactions between the anthracene units can be sufficient to overcome the Coulombic repulsion and form the homo[2]catenane, ^2,6AnHC.8PF6.
Preparation of ^2,6AnHC.8PF6 was achieved following two synthetic procedures which consisted of mixing ^2,6AnBox.4PF6 with its precursors ^2,6AnDB.2PF6, and ^2,6AnBPY in the absence (Protocol I) or presence (Protocol II) of tetrabutylammonium hexafluorophosphate (TBAPF6). See Scheme 6. Our attempts to prepare ^2,6AnHC.8PF6 following Protocol I produced very low yields (<5%) of the catenane.
In order to evaluate whether the addition of salt would enhance the synthesis of the rigid ^2,6AnHC.8PF6 homo[2]catenane, we investigated the effects of the addition of tetrabutylammonium hexafluorophosphate (TBAPF6) salt on the formation of the ^2,6AnDB^2+⊂^2,6AnBox^4+ inclusion complex. […] Remarkably, the change in color of the solution from yellow to red implies^38 an increase in the strength of the ^2,6AnDB^2+⊂^2,6AnBox^4+ host-guest complex. In order to estimate the magnitude of the association constant between ^2,6AnDB^2+ and ^2,6AnBox^4+, we prepared (FIG. 2A-2C, Scheme 8) an anthracene-based dicationic model DM^2+. […] Consequently, the efficiency of the catenane synthesis is also found to be sensitive to the addition of TBAPF6. At a salt concentration of 250 mM, the homo[2]catenane ^2,6AnHC.8PF6 was prepared by mixing ^2,6AnBox.4PF6, ^2,6AnDB.2PF6, and ^2,6AnBPY in a 1:2:2 molar ratio in MeCN resulting in an isolated yield of up to 40%. See Scheme 2. The ^1H NMR spectrum of ^2,6AnHC^8+ was recorded at room temperature in CD3CN. Only three signals are observed which can be assigned to the pyridinium, methylene, and phenylene protons. All other resonances associated with the anthracene units disappear or are broadened at room temperature. In the temperature dependent 41 NMR spectra (data not shown), the signals for the anthracene protons reappear at low temperature and have been assigned based on 2D ROESY NMR spectroscopic measurements. These experiments confirm the dynamic nature of the homo[2]catenane in which the two mechanically interlocked rings undergo relative co-conformational changes at room temperature. The catenane was also characterized by high-resolution mass spectrometry (HR-MS). A characteristic peak corresponding to [M-3 PF6]^3+ is present in the mass spectrum (data no shown) at m/z of 823.7819 which compares well with the calculated value for m/z of 823.7814.
All reagents were purchased from commercial suppliers (Aldrich or Fisher) and used without further purification. Anthracene derivatives, 9,10-bis(4-pyridyl)anthracene (^9.^10AnBPY) and 2,6-bis(4-pyridyl)anthracene (^2,6AnBPY) were synthesized following^1,2 reports in the literature. All reactions and manipulations were carried out under a dry N2 atmosphere using standard Schlenk. Thin-layer chromatography (TLC) was performed on silica gel 60 F254 TLC plates (Merck). Column chromatography was carried out using CombiFlash® Automation Systems (Teledyne ISCO) employing both normal phase (RediSep Rf Gold® Normal-Phase Silica) and reverse phase (RediSep Rf Gold® Reversed-phase C18). […]

[2] = Absorption and photoluminescence spectroscopy in solution; format: physicochemical; settings: for absorption band (higher-energy band of the anthracene moiety) / absorption, vibronic peak of the anthracene moiety (lower-energy): high dilution; for emission band, vibronic peaks of the anthracene moiety: fluorescence spectroscopy, data not shown; for τ (emission lifetime): 405 nm excitation
Description: The close proximity of the anthracene units in the mechanically interlocked cyclophanes was expected to give rise to remarkable optical properties distinct from those of the free cyclophanes. We explored the absorption and fluorescence properties of all compounds at high dilution (4×10^−7 M) to avoid reabsorption processes^40 and aggregation effects.^17 All of the optical parameters are summarized in Tables 1 and 2. Initially, we explored the influence of the pyridine/pyridinium units on the optical properties of both ^2,6AnBox^4+ and ^9,10AnBox^4+ cyclophanes. The presence of two pyridinium units within the linker dramatically affect the optical properties of the anthracene moiety. Although ^2,6AnBPY (FIG. 5C) and ^9,10AnBPY display^41 characteristic vibronic peaks associated with the anthracene moiety at 290 and 400 nm, ^2,6AnDB^2+ and ^9,10AnDB^2+ display a shift of the band at 290 to 330 nm (FIG. 5A) and the emergence of a new featureless broad band at 450 nm associated with CT from the anthracene moiety to the pyridinium unit. It is noteworthy that phenylene-bridged bipyridyl linkers (ExBIPY) display^35 a single absorption peak at 325 nm in MeCN, while the anthracene moiety leads to the emergence of some push-pull D-A character.
All reagents were purchased from commercial suppliers (Aldrich or Fisher) and used without further purification. Anthracene derivatives, 9,10-bis(4-pyridyl)anthracene (^9.^10AnBPY) and 2,6-bis(4-pyridyl)anthracene (^2,6AnBPY) were synthesized following^1,2 reports in the literature. All reactions and manipulations were carried out under a dry N2 atmosphere using standard Schlenk. Thin-layer chromatography (TLC) was performed on silica gel 60 F254 TLC plates (Merck). Column chromatography was carried out using CombiFlash® Automation Systems (Teledyne ISCO) employing both normal phase (RediSep Rf Gold® Normal-Phase Silica) and reverse phase (RediSep Rf Gold® Reversed-phase C18). […] All the spectra were baseline-corrected with a MeCN blank sample. The photoluminescence spectra of all samples were obtained with a Fluorolog-3 spectrafluorometer (Horiba Jobin Yvon) in a 2-mm quartz cuvette with 3-nm slit width and a front-phase geometry. The time-correlated single photon counting setup is described elsewhere.^3 Nuclear magnetic resonance (NMR) spectra were recorded on a Bruker Avance III 500 and 600 MHz spectrometers, with working frequencies of 500 and 600 MHz (′H NMR) and 125 MHz (^13C NMR), respectively. Chemical shifts are reported in ppm relative to the signals corresponding to the residual non-deuterated solvents (CD3CN: δ1−1=1.94 ppm and δC=1.32 ppm). High-resolution mass spectra (HRMS) were measured on an Agilent 6210 Time of Flight (TOF) LC-MS, using an ESI source, coupled with Agilent 1100 HPLC stack, using direct infusion (0.6 mL min ^−1). The binding constants were determined using this link: website http://supramolecular.org.^4

[3] = test system: MIA PACA2 cancer cells; assay: Cell growth / toxicity by phase contrast imaging over 48 hours; format: cell-based; settings: any concentration tested
Description: Cells were cultured for 4 hours then treated with the compounds at a range of concentrations. Upon treatment, cells were placed in a BioTek LionheartFX system, where they were imaged every 20 minutes for 48 hours, under standard culture conditions (37° C., 5% CO2). Phase contrast images were processed and analyzed with BioTek Gen5 analysis software to identify cell number at the start and end of the culture time. There was no significant difference in percent growth either between the two compounds or between the different concentrations and the untreated (0 mM) control.
Cells were grown in standard DMEM (supplemented with 10% Fetal Bovine Serum and 1% Penicillin-Streptomycin, supplier=Corning). Cells were seeded into imaging coverglass chamber 40 hours prior to treatment. Compounds were resuspended in deionized H2O then diluted to the final concentration in media. Cells were treated with compounds for 6 hours prior to imaging.

[4] = reported in the literature; cited from earlier work

Compound: c1ccc(C[n+]2ccc(-c3ccc4cc5cc(-c6cc[n+](Cc7ccccc7)cc6)ccc5cc4c3)cc2)cc1 [DM^2+]
binding constant Ka [1]: 611 M⁻¹
association constant Ka [1]: 40 M⁻¹

Compound: c1ccc(C[n+]2ccc(-c3ccc4cc5cc(-c6ccncc6)ccc5cc4c3)cc2)cc1 [MM^+]
binding constant Ka [1]: 540 M⁻¹
association constant Ka [1]: 102 M⁻¹

absorption band (higher-energy band of the anthracene moiety) ([2]; MeCN): 290 nm
absorption, vibronic peak of the anthracene moiety (lower-energy) ([2]; MeCN): 400 nm
emission band, vibronic peaks of the anthracene moiety [2]: 440 nm
Compound: c1cc(-c2ccc3cc4cc(-c5ccncc5)ccc4cc3c2)ccn1 [^2,6AnBPY, 2,6-bis(4-pyridyl)anthracene, reference compound]

Compound: [Cl-].[Cl-].[Cl-].[Cl-].c1cc2ccc1C[n+]1ccc(cc1)-c1ccc3cc4cc(ccc4cc3c1)-c1cc[n+](cc1)Cc1ccc(cc1)C[n+]1ccc(cc1)-c1ccc3cc4cc(ccc4cc3c1)-c1cc[n+](cc1)C2 [^2,6AnBox⋅4Cl]
toxicity to the cells [3]: Neither the catenane (^2,6AnHC.8Cl) nor the cyclophane (^2,6AnBox⋅4Cl) are toxic to the cells at any concentration tested

Φ (PL quantum yield) ([2]; 4 × 10^−7 M, MeCN): 7.0%
λabs ([2]; 4 × 10^−7 M, MeCN): 453 nm
λem ([2]; 4 × 10^−7 M, MeCN): 542 nm
τ (emission lifetime) ([2]; 4 × 10^−7 M, MeCN): 10 ns
charge transfer (CT) absorption band ([2]; MeCN): 450 nm
absorption band (higher-energy band of the anthracene moiety) ([2]; MeCN): 330 nm
association constant Ka [1]: 42 M⁻¹
Compound: BrCc1ccc(C[n+]2ccc(-c3ccc4cc5cc(-c6cc[n+](Cc7ccc(CBr)cc7)cc6)ccc5cc4c3)cc2)cc1 [^2,6AnDB^2+]
concentration dependence of excimer/exciplex emission ([2]; from high concentration to high dilution (10^−8 M)): absence of excimer emission at high concentration

absorption band (higher-energy band of the anthracene moiety) ([2]; MeCN): 290 nm
absorption, vibronic peak of the anthracene moiety (lower-energy) ([2]; MeCN): 400 nm
emission band, vibronic peaks of the anthracene moiety [2]: 440 nm
Compound: c1ccc2c(-c3ccncc3)c3ccccc3c(-c3ccncc3)c2c1 [^9,10AnBPY, 9,10-bis(4-pyridyl)anthracene, reference compound]

Φ (PL quantum yield) ([2]; 4 × 10^−7 M, MeCN): 1.3%
λabs ([2]; 4 × 10^−7 M, MeCN): 415 nm
λem ([2]; 4 × 10^−7 M, MeCN): 566 nm
τ (emission lifetime) ([2]; 4 × 10^−7 M, MeCN): 8.7 ns
Stokes shifts (δ) ([2]; DMF, 4 × 10^−7 M): 6793 cm⁻¹
λabs ([2]; DMF, 4 × 10^−7 M): 402 nm
λem ([2]; DMF, 4 × 10^−7 M): 576 nm
λexc ([2]; DMF, 4 × 10^−7 M): 414 nm
Stokes shifts (δ) ([2]; EtOH, 4 × 10^−7 M): 6502 cm⁻¹
λabs ([2]; EtOH, 4 × 10^−7 M): 409 nm
λem ([2]; EtOH, 4 × 10^−7 M): 574 nm
λexc ([2]; EtOH, 4 × 10^−7 M): 418 nm
Stokes shifts (δ) ([2]; H2O, 4 × 10^−7 M): 6199 cm⁻¹
λabs ([2]; H2O, 4 × 10^−7 M): 419 nm
λem ([2]; H2O, 4 × 10^−7 M): 566 nm
λexc ([2]; H2O, 4 × 10^−7 M): 419 nm
Stokes shifts (δ) ([2]; Me2SO, 4 × 10^−7 M): 6966 cm⁻¹
λabs ([2]; Me2SO, 4 × 10^−7 M): 403 nm
λem ([2]; Me2SO, 4 × 10^−7 M): 570 nm
λexc ([2]; Me2SO, 4 × 10^−7 M): 408 nm
Stokes shifts (δ) ([2]; MeCN, 4 × 10^−7 M (Table 2)): 6371 cm⁻¹
λabs ([2]; MeCN, 4 × 10^−7 M (Table 2)): 410 nm
λem ([2]; MeCN, 4 × 10^−7 M (Table 2)): 566 nm
λexc ([2]; MeCN, 4 × 10^−7 M (Table 2)): 416 nm
Stokes shifts (δ) ([2]; MeOH, 4 × 10^−7 M): 6282 cm⁻¹
λabs ([2]; MeOH, 4 × 10^−7 M): 402 nm
λem ([2]; MeOH, 4 × 10^−7 M): 565 nm
λexc ([2]; MeOH, 4 × 10^−7 M): 417 nm
Compound: c1ccc2c3c4ccccc4c(c2c1)-c1cc[n+](cc1)Cc1ccc(cc1)C[n+]1ccc(cc1)-c1c2ccccc2c(c2ccccc12)-c1cc[n+](cc1)Cc1ccc(cc1)C[n+]1ccc-3cc1 [^9,10AnBox^4+]

charge transfer (CT) absorption band ([2]; MeCN): 450 nm
absorption band (higher-energy band of the anthracene moiety) ([2]; MeCN): 330 nm
Compound: BrCc1ccc(C[n+]2ccc(-c3c4ccccc4c(-c4cc[n+](Cc5ccc(CBr)cc5)cc4)c4ccccc34)cc2)cc1 [^9,10AnDB^2+]

association constant Ka [1]: 125 M⁻¹
Compound: c1ccc2cc3ccccc3cc2c1 [anthracene, reference compound]
emission lifetime [4]: ~18 ns
